row,Compound,melting point [°C]
1,CC(=O)c1cc(C(=O)OCc2ccco2)c(C2=NC(C)(C(C)C)C(=O)N2)nc1C (configuration not stated),133 to 136
2,CC(C)N1CCC(CN2CCN(CCCN3CCCCC3)C2=C(C#N)C#N)CC1,115 to 117
3,COc1ccc(C(=O)O)cc1C1(C)CCCCC1,199
4,COCCc1nc2c(N)nc3ccccc3c2n1CCOCCNC(=O)N1CCOCC1,164 to 166
5,CCOC(=O)c1c(Cn2cnnc2)nc2sc(C)c(C)c2c1-c1ccc(OC)c(OC)c1,187 to 188
6,Fc1ccc2c(c1)OCc1c(-c3nc(C4CCCC4)no3)ncn1-2,134 to 135
7,CC(C)(C)OC(=O)NC1CCC2(CC1)CSC1=C(O2)c2ccccc2C(=O)C1=O (configuration not stated),224 to 225
8,CC(C)C(=O)c1cccc([N+](=O)[O-])c1,33 to 35
9,CC(=O)N1C(=O)C(C(=O)Cc2ccccc2)c2ccccc21 (configuration not stated),149 to 151
10,COc1cc2ncc(NC(=O)C=Cc3cc(OC)c(OC(C)=O)c(OC)c3)c(-c3ccccc3)c2cc1OC,256 to 257
11,CCOC(=O)c1c(CN(CC)CC)nc2sc3cnccc3c2c1-c1ccc(OC)c(OC)c1,163 to 165
12,CCOC(=O)C1=C(C)Nc2ccn(CCCN(C)C)c(=O)c2C1c1cccc([N+](=O)[O-])c1 (configuration not stated),212 to 213
13,O=C(OCCN1C(=O)c2ccccc2C1=O)c1cccc2c(=O)c(OCCN3C(=O)c4ccccc4C3=O)c(-c3ccc(OCc4ccc5ccccc5n4)cc3)oc12,211 to 212
14,COC(=O)C(CCSC)N(C(=O)OC(C)(C)C)C(=O)c1ccc(N)cc1 (configuration not stated),184 to 185
15,c1ccc2c(CCCCN3CCc4c(sc5ccccc45)C3)c[nH]c2c1,113 to 115
16,N#Cc1c(-c2ccccc2)sc2c1CNCC2c1ccccc1 (configuration not stated),160
17,CCn1c(=O)c(C(=O)O)c(O)c2ccc(C)nc21,162 to 165
18,CCCCCCCCCCCCCCCCCCN=C=NCCCCCCCCCCCCCCCCCC,65
19,Cc1cc(NC(=O)CC(C)(C)C)c2c(c1)C(c1ccc(C(C)C)cc1)C(C)(C)O2 (configuration not stated),64 to 68
20,COc1cc(C(=O)O)c(N)cc1C,193 to 196
21,Cc1cccc(Cl)c1C=NS,143
22,Cc1nc(N)c(C(N)=S)s1,209 to 213

row,Compound,melting point [°C]
1,O=C1Nc2ccccc2C12COc1ccc3nonc3c12 (configuration not stated),> 220
2,COc1cc2ncc(C#N)c(Nc3c(C)cccc3O)c2cc1OC,245 to 247
3,COC(=O)c1ccc2cc(C(=O)c3cc(O)c4c(c3)C(C)(C)CCC4(C)C)ccc2c1,222
4,COc1ccc(Oc2c(C)cc(O)cc2C)cc1C(C)C,60 to 64
5,CCCCCCCNCCCCCCCCSc1nc(-c2ccccc2)c(-c2ccccc2)[nH]1,87 to 89
6,CCN(CC)c1nc2[nH]c3c(c(=O)n2n1)SCCC3,308 to 310
7,CN(C)S(=O)(=O)n1cnc(S(=O)(=O)NCc2ccc(Cl)cc2)c1,171 to 173
8,COc1ccc(N2CCN(c3c(C)c(C)c4c(c3C)C(c3ccco3)C(C)(C)O4)CC2)cc1 (configuration not stated),110 to 111
9,O=P(O)(O)Oc1cccc(-c2nc3sccn3c2-c2cccc(N[C@@H]3CCCN(S(=O)(=O)c4ccc(Cl)cc4)C3)c2)c1,239 to 245
10,N#Cc1cc(Oc2ccc(Cl)cc2Cl)c(O)cc1Cl,145 to 150
11,CC(C)(C)[C@H]1CC[C@H](CC2=C(Cl)C(=O)c3ccccc3C2=O)CC1,154 to 156
12,CCCn1c(=O)cc2n(c1=O)CC(CSc1ccccc1)S2 (configuration not stated),88 to 89
13,COC(=O)NC1=NCC(c2ccccc2C)N1C (configuration not stated),158 to 161
14,C#CC(C)N1C(=O)c2ccccc2C1=O (configuration not stated),104 to 106
15,CCOC1=C(C(=O)N(C)C)S(=O)(=O)N=C1N,221 to 223
16,CCC(OC(C)=O)c1ccc(Cl)c2nc3n(c12)CCCN3c1ccc(OC)nc1C (configuration not stated),157 to 159
17,CSC(=N[N+](=O)[O-])NC(C)=O,109 to 110
18,CCCC1=C(C(=O)OCC)C(c2cccc([N+](=O)[O-])c2)C(C(=O)OCC)=C(C)N1COCC (configuration not stated),97
19,C[N+]([O-])=C(Cn1cncn1)c1ccccc1,117 to 119
20,O=C1CCC(=O)N1Cn1nnc(-c2ccnc(-c3nnn(CN4C(=O)CCC4=O)n3)c2)n1,190 to 192
21,O=C(O)c1cnc(-c2ccccc2OCC2CC2)[nH]c1=O,219 to 220

# The remaining lines, values ahead:
row,melting point [°C],Compound
1,114 to 116,COC(=O)c1c(OC(=O)N(c2ccccc2)c2ccccc2)cc(C(F)(F)F)nc1C(F)(F)F
2,70 to 74,CCC1c2cccn2-c2ccc(Cl)cc2N1C(=O)c1ccc(OC)cc1OC (configuration not stated)
3,222 to 223,CN(C)C(=O)Nc1c(C(=O)c2ccccc2)[nH]c2cc(Cl)ccc12
4,181,CCOC(=O)CC1(c2ccccc2OCC)C(=O)Nc2ccc(Cl)cc21 (configuration not stated)
5,67,CCCN(CCc1c[nH]c2ccc(F)cc12)C1COc2ccc3ncccc3c2C1 (configuration not stated)
6,81 to 83,CCCCCCCCC(Sc1ccccn1)C(=O)Nc1cccc2cnccc12 (configuration not stated)
7,153 to 162,O=C(CBr)c1ccc(-c2ccc([N+](=O)[O-])cc2)o1
8,75,O=C(CCCCOCc1ccccc1)c1ccc([N+](=O)[O-])cc1
9,> 260,Cn1cncc1C(O)(c1ccc2c(c1)OCCO2)c1ccc2[nH]c(=O)nc(-c3cccc(Cl)c3)c2c1 (configuration not stated)
10,176 to 178,CC(C)(O)COc1c(-c2ccc(S(N)(=O)=O)cc2)cnn(-c2ccc(F)c(Cl)c2)c1=O
11,221,COc1ccc(C)cc1NC(=O)Nc1ccc(N2CCN(C(=O)Nc3ccccc3)CC2)cc1
12,119 to 120,CCCCCCCC[C@@H](O)C(=O)Nc1cccc2nc(SC)ccc12
13,94.5 to 96,O=C(NC(C(=O)OCc1ccccc1)C(=O)C1CC1)c1ccc(F)cc1 (configuration not stated)
14,133 to 135,Cn1ncnc1COc1nc2c(cc1-c1ccsc1)nnn2-c1ccccc1F
15,82 to 85,CCN(CC)C(=O)Cc1ccc(C(=O)c2ccc(Cl)cc2)n1C
16,205 to 206,COc1ccc(-c2nnc3cc(-c4ccccc4)c(OCc4ncn(C)n4)nn23)cc1
17,137 to 140,CC(Oc1ccc(Oc2cnc3cc(Cl)ccc3n2)cc1)C(=O)Nc1ccc(OC(F)(F)CF)cc1 (configuration not stated)
18,135 to 136,Fc1ccc2c(CCCN(c3ccncc3)c3csc4cccc(Cl)c34)noc2c1
19,76,O=[N+]([O-])c1cccnc1NCc1ccc(F)cc1
20,272 to 274,O=C1COC(Nc2ccc(C(O)(C(F)(F)F)C(F)(F)F)cc2)=N1
21,166 to 168,Cc1ccccc1NC(=O)CN1CC2CCC(C1)N2S(=O)(=O)c1cccc(C#N)c1
22,58 to 60,O=Cc1ccc2c(ccc3ccccc32)c1
23,175,CCOc1ccc2c(c1)n(-c1ccccn1)c(=O)n2S(=O)(=O)c1ccc([N+](=O)[O-])cc1OC
24,83 to 85,Cc1cccc(-c2[nH]c(C(C)C)nc2-c2cccc(-c3ccsc3)c2)n1
25,145 to 146,C/C(=C\Cn1oc(=O)[nH]c1=O)c1cccc(OCc2nc(-c3ccc(OCC(F)(F)F)cc3)oc2C)c1
26,154 to 158,CCOC(=O)c1cn(CC(F)(F)F)c2c(C)cc(F)cc2c1=O
27,153 to 154,CC(=O)Nc1ccc(Cc2nc3c(c4c2[nH]c2ccccc24)C(=O)CC(C)(C)C3)cc1

row,melting point [°C],Compound
1,126 to 127,CCC(O)(c1ccc(O)cc1)c1ccc(C(F)(F)F)cc1 (configuration not stated)
2,216 to 217,Cc1cc2ccccn2c1C(=O)c1ccc(O)c(Br)c1
3,88 to 89,CN(Cc1ccc(N)cc1)C1CCSCC1
4,87 to 90,CN(CC(=O)c1ccc(Br)cc1)C(=O)OC(C)(C)C
5,133 to 134,O=C1CCCC(C(=O)c2ccc(Cc3ccc(F)cc3)o2)=C1O
6,156,O=C(Nc1ccc2ccc(-c3ccccc3Cl)nc2n1)c1ccccc1
7,120 to 122,CCCCCNS(=O)(=O)NC(=O)/C=C/c1ccc(OCCOC)cc1Oc1ncc(C(F)(F)F)cc1Cl
8,75 to 76,CC(NC(=O)Cc1cc(F)cc(F)c1)C(=O)NC1C(=O)N(CCc2ccccc2)Cc2ccccc21 (configuration not stated)
9,88 to 90,Cc1ccc(C(=O)CC(=O)OC(C)(C)C)c(O)c1
10,213 to 214,CC(CO)CCn1c(C(=O)NCc2cc(C(F)(F)F)cc(C(F)(F)F)c2)c(-c2ccccc2)c2cccnc2c1=O (racemic)
11,115 to 117,C[C@H](c1ccccc1)N1C(=O)c2cccc([N+](=O)[O-])c2C1=O
12,204 to 206,COC(=O)c1cc(O)c2c(c1)c1ccccc1n2C
13,150,COc1ccc(-c2c[nH]c(=S)n2O)cc1
14,207 to 209,O=C(Nc1ccc2c(c1)CCC(CCN1CCCC1)=C2)c1ccc(-c2ccc(Cl)cc2)cc1
15,94.5 to 95.5,CCOC(=O)CNC(=O)COc1ccc(C=O)cc1
16,119 to 120,O=C(CCN1CCN(c2ncc(F)cn2)CC1)Cc1ccc(F)c2ccccc12
17,234 to 235,CC(C)(C)S(=O)(=O)c1cccc(-c2nc(=O)c3ccccc3s2)n1
18,47,Fc1ccc(/C=C/c2cc(F)cc(F)c2)cc1
19,88.5 to 90,CCC1CN(c2cccc(C(C)C)c2)C(=O)C1c1cccc(Cl)c1 (configuration not stated)
20,153 to 155,CNc1nc(-c2cccc(-c3ccc(S(C)=O)cc3)c2)c2cc(OC)c(OC)cc2n1 (configuration not stated)
21,108 to 109,CCOC(=O)C(C)(C)c1ccc(CCNC(=O)c2ccc(Cl)cc2)cc1
22,171 to 173,O=C(O)Cc1ccc(OCc2c(Cl)cccc2C(=O)O)cc1
23,148 to 149,N#Cc1cc(Cc2ccccc2)cc(-c2cccc([N+](=O)[O-])c2)c1O
24,117,CC(C)(C)OC(=O)N1C(=O)CCC1c1ccc(F)cc1 (configuration not stated)
25,80 to 85,COC(=O)C=C(C)c1ccc2c(ccn2S(=O)(=O)c2ccccc2)c1
26,205 to 206,O=C(O)C1=Cc2cc(Cl)c(Oc3ccc(Cl)cc3)cc2OC1C(F)(F)F (configuration not stated)
27,155 to 156,CCOC(=O)c1cc2c3ccccc3n(Cc3ccccc3)c2nc1N1CCCCC1
